Data taken from US9333199B2, “Methods of treatment of histamine H-4 receptor-related pruritus associated with nerve disorders” (BRIDGE PHARMA, INC., priority 2013, dated 2016).

How the values were obtained:
[1] = test system: histamine-induced pruritus; test: Antipruritic activity, histamine-induced pruritus in mice; assay type: in vivo, CD-1 mice; conditions: for inhibition of pruritus following histamine injections (in words): intradermal histamine, Example 5, JNJ7777120 and desloratadine 20 mg/kg oral
Procedure: Antipruritic effects were tested in vivo in CD-1 mice, females, 10-12 weeks, according to methods known in the art. The hair was clipped over the rostral part of the back at the interscapular level of the mice one day before the dosing. Before the testing, the mice were placed in individual clear plastic cages for at least one hour for acclimation. After fasting for 1.5 hours, the animals were dosed orally with the test article, dissolved in a vehicle consisting of 1% methylcellulose/water, 10 mL/kg body weight. Sixty minutes after the oral dosing, an intradermal injection of histamine (300 nmol in 20 μl phosphate buffered saline (PBS), pH 7.4) was administered. Immediately after the histamine injection, the bouts of scratches were counted for 40 min. Scratching induced by the histamine vehicle PBS served as control.
Norketotifen was tested in escalating doses and in a supramaximal dose of 100 mg/kg.

[2] = Sedation in human subjects; assay type: in vivo; conditions: doses of 5 mg and 10 mg, humans
[3] = Repeat-dose pharmacological and toxicological studies in dogs; assay type: in vivo; conditions: daily doses up to 20 mg/kg/day
Source text: Dogs vomit spontaneously for a variety of benign reasons—to expel unwanted content from their stomach, as a result of gastric irritation or in response to colonic irritation. In recent toxicological studies in dogs of various drugs, including isomeric norketotifen, vomiting occurred in both control groups and drug groups and may have been treatment-related, rather than drug-related. The unexpectedly low systemic toxicity of norketotifen and the isomers thereof is believed to be due to low systemic (plasma) concentrations, caused by the fact that norketotifen and the isomers thereof are not circulating in plasma but are accumulating in the skin, which is the largest organ in the body.

[4] = test system: histamine-induced pruritus; conditions: intradermal histamine, humans and mice; not tested in Example 5; cited from earlier work

| SMILES | inhibition of pruritus following histamine injections (in words) [1] | inhibition of histamine-induced pruritus at supramaximal dose ([1]; 100 mg/kg oral, histamine 300 nmol intradermal, bouts counted 40 min) | inhibition of histamine-induced pruritus, escalating doses ([1]; escalating oral doses, histamine 300 nmol intradermal) | sedation in human subjects [2] | sedation or other adverse events, chronic dosing [3] | inhibition of pruritus following histamine injections (in words), general statement [4] |
| --- | --- | --- | --- | --- | --- | --- |
| CN1CCN(C(=O)c2cc3cc(Cl)ccc3[nH]2)CC1 [JNJ7777120, reference compound] | potently inhibited |  |  |  |  |  |
| O=C1Cc2ccccc2C(=C2CCNCC2)c2ccsc21 [Norketotifen, norketotifen] | potently inhibited | complete inhibition | dose-dependently inhibiting histamine-induced pruritus | do not produce sedation | without causing sedation or other adverse events |  |
| CC(C)(C(=O)O)c1ccc(C(O)CCCN2CCC(C(O)(c3ccccc3)c3ccccc3)CC2)cc1 (stereo not shown) [fexofenadine] |  |  |  |  |  | not inhibited |
